This is an account of results in patent publication US12679843B2, “Pyrrolopyrimidine amines as complement inhibitors” (BioCryst Pharmaceuticals, Inc., priority 2020, dated 2026).

pIC50: −log10 of the molar value.

This experiment deals with Factor D (Homo sapiens, UniProt P00746). As to the kind of experiment: Factor D esterolytic assay (Z-Lys-SBzl thioester substrate, DTNB, 405 nm). It counts as biochemical. The following applies: substrate Z-Lys-SBzl 1.29 mM, 100 mM HEPES, 500 mM NaCl, pH 7.5, 10% DMSO, tested a minimum of three times. Summed up: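 Human Factor D hydrolysis of Z-Lys-SBzl (1.29 mM) monitored at 405 nm via DTNB thiol detection for 600 s, 690 nm background subtracted. Buffer 100 mM HEPES, 500 mM NaCl, pH 7.5, 10% DMSO; substrate added immediately or after room-temperature preincubation. IC50 from percent inhibition of rate, at least three tests.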
Sequence of Factor D (P00746 26-253): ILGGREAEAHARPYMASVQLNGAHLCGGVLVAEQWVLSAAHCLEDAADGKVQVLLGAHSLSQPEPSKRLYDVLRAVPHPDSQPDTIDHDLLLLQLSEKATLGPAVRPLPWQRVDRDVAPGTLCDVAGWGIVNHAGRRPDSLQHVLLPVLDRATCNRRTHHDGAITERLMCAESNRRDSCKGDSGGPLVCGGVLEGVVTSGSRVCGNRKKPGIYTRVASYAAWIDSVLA

With `Nc1ncnc2c1ncn2CC(=O)N1CCC[C@H]1C(=O)NCc1cccc(Cl)c1F` [Compound 119a, (S)-1-(2-(6-amino-9H-purin-9-yl)acetyl)-N-(3-chloro-2-fluorobenzyl)pyrrolidine-2-carboxamide], the pIC50 (commonly the IC50 on a negative log10 scale, so that one unit is a factor of ten) is 6.00 to 7.00.

Consider `Nc1ncnc2c1ncn2CC(=O)N1CC2(CC2)C[C@H]1C(=O)NCc1cccc(Cl)c1F` [Compound 120c, (S)-5-(2-(6-amino-9H-purin-9-yl)acetyl)-N-(3-chloro-2-fluorobenzyl)-5-azaspiro[2.4]heptane-6-carboxamide], for which the pIC50 was below 6.00.

For the molecule `C[C@@H]1C[C@@H](C(=O)NCc2cccc(Cl)c2F)N(C(=O)Cn2cnc3c(N)ncnc32)C1` [Compound 121d, (2S,4R)-1-(2-(6-amino-9H-purin-9-yl)acetyl)-N-(3-chloro-2-fluorobenzyl)-4-methylpyrrolidine-2-carboxamide], the pIC50 was below 6.00.

In the case of `C[C@@]1(F)C[C@@H](C(=O)NCc2cccc(Cl)c2F)N(C(=O)Cn2cnc3c(N)ncnc32)C1` [Compound 122c, (2S,4R)-1-(2-(6-amino-9H-purin-9-yl)acetyl)-N-(3-chloro-2-fluorobenzyl)-4-fluoro-4-methylpyrrolidine-2-carboxamide], the pIC50 is 6.00 to 7.00.

Regarding `NCCNc1ncnc2c1ncn2CC(=O)N1C[C@H](F)C[C@H]1C(=O)NCc1cccc(Cl)c1F` [Compound 123g, (2S,4R)-1-(2-(6-((2-aminoethyl)amino)-9H-purin-9-yl)acetyl)-N-(3-chloro-2-fluorobenzyl)-4-fluoropyrrolidine-2-carboxamide], the pIC50 was below 6.00.

Take `Nc1ncnc2c1ncn2CC(=O)N1[C@@H]2CC[C@@H](C2)[C@H]1C(=O)NCc1cccc(Cl)c1F` [Compound 124b, (1R,3S,4S)-2-(2-(6-amino-9H-purin-9-yl)acetyl)-N-(3-chloro-2-fluorobenzyl)-2-azabicyclo[2.2.1]heptane-3-carboxamide]: the pIC50 is below 6.00.

As to `Nc1ncnc2c1c(F)cn2CC(=O)N1C[C@H](F)C[C@H]1C(=O)NCc1cccc(Cl)c1F` [Compound 125d, (2S,4R)-1-(2-(4-amino-5-fluoro-7H-pyrrolo[2,3-d]pyrimidin-7-yl)acetyl)-N-(3-chloro-2-fluorobenzyl)-4-fluoropyrrolidine-2-carboxamide], the pIC50 was 6.00 to 7.00.

As for `Nc1ncnc2c1c(-c1c[nH]c3ccccc13)cn2CC(=O)N1C[C@H](F)C[C@H]1C(=O)NCc1cccc(Cl)c1F` [Compound 126f, (2S,4R)-1-(2-(4-amino-5-(1H-indol-3-yl)-7H-pyrrolo[2,3-d]pyrimidin-7-yl)acetyl)-N-(3-chloro-2-fluorobenzyl)-4-fluoropyrrolidine-2-carboxamide], the pIC50 was 6.00 to 7.00.

On to `COC(=O)c1cnc2c(ccn2CC(=O)N2[C@@H]3C[C@@H]3C[C@H]2C(=O)Nc2cccc(Br)n2)c1` [Compound 127d, methyl 1-(2-((1R,3S,5R)-3-((6-bromopyridin-2-yl)carbamoyl)-2-azabicyclo[3.1.0]hexan-2-yl)-2-oxoethyl)-1H-pyrrolo[2,3-b]pyridine-5-carboxylate], for which the pIC50 was below 6.00.

For the molecule `O=C(O)c1cnc2c(ccn2CC(=O)N2[C@@H]3C[C@@H]3C[C@H]2C(=O)Nc2cccc(Br)n2)c1` [Compound 128a, 1-(2-((1R,3S,5R)-3-((6-bromopyridin-2-yl)carbamoyl)-2-azabicyclo[3.1.0]hexan-2-yl)-2-oxoethyl)-1H-pyrrolo[2,3-b]pyridine-5-carboxylic acid], the pIC50 is below 6.00.

With `Nc1cn(CC(=O)N2[C@@H]3C[C@@H]3C[C@H]2C(=O)Nc2cccc(Br)n2)c2ncncc12` [Compound 129f, (1R,3S,5R)-2-(2-(5-amino-7H-pyrrolo[2,3-d]pyrimidin-7-yl)acetyl)-N-(6-bromopyridin-2-yl)-2-azabicyclo[3.1.0]hexane-3-carboxamide], the pIC50 is 6.00 to 7.00.

Regarding `N#Cc1cn(CC(=O)N2C[C@H](F)C[C@H]2C(=O)NCc2cccc(Cl)c2F)c2ncnc(N)c12` [Compound 130e, (2S,4R)-1-(2-(4-amino-5-cyano-7H-pyrrolo[2,3-d]pyrimidin-7-yl)acetyl)-N-(3-chloro-2-fluorobenzyl)-4-fluoropyrrolidine-2-carboxamide], the pIC50 was 6.00 to 7.00.

`Nc1ccnc2c1ccn2CC(=O)N1C[C@H](F)C[C@H]1C(=O)NCc1cccc(Cl)c1F` [Compound 131e, (2S,4R)-1-(2-(4-amino-1H-pyrrolo[2,3-b]pyridin-1-yl)acetyl)-N-(3-chloro-2-fluorobenzyl)-4-fluoropyrrolidine-2-carboxamide]: the pIC50 is 6.00 to 7.00.

`Cc1nc(N)c2ccn(CC(=O)N3C[C@H](F)C[C@H]3C(=O)NCc3cccc(Cl)c3F)c2n1` [Compound 132d, (2S,4R)-1-(2-(4-amino-2-methyl-7H-pyrrolo[2,3-d]pyrimidin-7-yl)acetyl)-N-(3-chloro-2-fluorobenzyl)-4-fluoropyrrolidine-2-carboxamide]: the pIC50 is below 6.00.

Take `Nc1ncnc2c1c(-c1cc3ccccc3[nH]1)cn2CC(=O)N1C[C@H](F)C[C@H]1C(=O)NCc1cccc(Cl)c1F` [Compound 133b, (2S,4R)-1-(2-(4-amino-5-(1H-indol-2-yl)-7H-pyrrolo[2,3-d]pyrimidin-7-yl)acetyl)-N-(3-chloro-2-fluorobenzyl)-4-fluoropyrrolidine-2-carboxamide]: the pIC50 was above 7.00.

Regarding `Nc1ncnc2c1c(-c1cccc3cc[nH]c13)cn2CC(=O)N1C[C@H](F)C[C@H]1C(=O)NCc1cccc(Cl)c1F` [Compound 134b, (2S,4R)-1-(2-(4-amino-5-(1H-indol-7-yl)-7H-pyrrolo[2,3-d]pyrimidin-7-yl)acetyl)-N-(3-chloro-2-fluorobenzyl)-4-fluoropyrrolidine-2-carboxamide], the pIC50 was above 7.00.

On to `Nc1ncnc2c1c(-c1ccccc1)cn2CC(=O)N1C[C@H](F)C[C@H]1C(=O)NCc1cccc(Cl)c1F` [Compound 135a, (2S,4R)-1-(2-(4-amino-5-phenyl-7H-pyrrolo[2,3-d]pyrimidin-7-yl)acetyl)-N-(3-chloro-2-fluorobenzyl)-4-fluoropyrrolidine-2-carboxamide], for which the pIC50 is 6.00 to 7.00.

On to `Nc1ncnc2c1c(-c1ccccc1Cl)cn2CC(=O)N1C[C@H](F)C[C@H]1C(=O)NCc1cccc(Cl)c1F` [Compound 136a, (2S,4R)-1-(2-(4-amino-5-(2-chlorophenyl)-7H-pyrrolo[2,3-d]pyrimidin-7-yl)acetyl)-N-(3-chloro-2-fluorobenzyl)-4-fluoropyrrolidine-2-carboxamide], for which the pIC50 was below 6.00.

`Nc1ncnc2c1c(-c1ccc3cc[nH]c3c1)cn2CC(=O)N1C[C@H](F)C[C@H]1C(=O)NCc1cccc(Cl)c1F` [Compound 137b, (2S,4R)-1-(2-(4-amino-5-(1H-indol-6-yl)-7H-pyrrolo[2,3-d]pyrimidin-7-yl)acetyl)-N-(3-chloro-2-fluorobenzyl)-4-fluoropyrrolidine-2-carboxamide]: the pIC50 was above 7.00.

In the case of `Nc1ncnc2c(CC(=O)N3C[C@H](F)C[C@H]3C(=O)NCc3cccc(Cl)c3F)cccc12` [Compound 138d, (2S,4R)-1-(2-(4-aminoquinazolin-8-yl)acetyl)-N-(3-chloro-2-fluorobenzyl)-4-fluoropyrrolidine-2-carboxamide], the pIC50 is 6.00 to 7.00.

`Nc1ncnc2c1c(-c1ccc3[nH]ccc3c1)cn2CC(=O)N1C[C@H](F)C[C@H]1C(=O)NCc1cccc(Cl)c1F` [Compound 139b, (2S,4R)-1-(2-(4-amino-5-(1H-indol-5-yl)-7H-pyrrolo[2,3-d]pyrimidin-7-yl)acetyl)-N-(3-chloro-2-fluorobenzyl)-4-fluoropyrrolidine-2-carboxamide]: the pIC50 is above 7.00.

For `NC(=O)c1cn(CC(=O)N2C[C@H](F)C[C@H]2C(=O)NCc2cccc(Cl)c2F)c2ncnc(N)c12` [Compound 140a, 4-amino-7-(2-((2S,4R)-2-((3-chloro-2-fluorobenzyl)carbamoyl)-4-fluoropyrrolidin-1-yl)-2-oxoethyl)-7H-pyrrolo[2,3-d]pyrimidine-5-carboxamide], the pIC50 was below 6.00.

As to `NCc1cn(CC(=O)N2C[C@H](F)C[C@H]2C(=O)NCc2cccc(Cl)c2F)c2ncnc(N)c12` [Compound 141a, (2S,4R)-1-(2-(4-amino-5-(aminomethyl)-7H-pyrrolo[2,3-d]pyrimidin-7-yl)acetyl)-N-(3-chloro-2-fluorobenzyl)-4-fluoropyrrolidine-2-carboxamide], the pIC50 is below 6.00.

As for `Cc1nc(N)c2cnn(CC(=O)N3C[C@H](F)C[C@H]3C(=O)NCc3cccc(Cl)c3F)c2n1` [Compound 142d, (2S,4R)-1-(2-(4-amino-6-methyl-1H-pyrazolo[3,4-d]pyrimidin-1-yl)acetyl)-N-(3-chloro-2-fluorobenzyl)-4-fluoropyrrolidine-2-carboxamide], the pIC50 is below 6.00.

For `Nc1ncnc2c1c(-c1ccoc1)cn2CC(=O)N1C[C@H](F)C[C@H]1C(=O)NCc1cccc(Cl)c1F` [Compound 143d, (2S,4R)-1-(2-(4-amino-5-(furan-3-yl)-7H-pyrrolo[2,3-d]pyrimidin-7-yl)acetyl)-N-(3-chloro-2-fluorobenzyl)-4-fluoropyrrolidine-2-carboxamide], the pIC50 is 6.00 to 7.00.

On to `NC(=O)c1cnc2c(ccn2CC(=O)N2C[C@H](F)C[C@H]2C(=O)NCc2cccc(Cl)c2F)c1N` [Compound 144g, 4-amino-1-(2-((2S,4R)-2-((3-chloro-2-fluorobenzyl)carbamoyl)-4-fluoropyrrolidin-1-yl)-2-oxoethyl)-1H-pyrrolo[2,3-b]pyridine-5-carboxamide], for which the pIC50 is 6.00 to 7.00.

As to `O=C(NCc1cccc(Cl)c1F)[C@@H]1C[C@@H](F)CN1C(=O)Cn1ccc2c3[nH]c(=O)[nH]c(=O)c3cnc21` [Compound 145a, (2S,4R)—N-(3-chloro-2-fluorobenzyl)-1-(2-(2,4dioxo-3,4dihydro-1H-pyrrolo[3′,2′:5,6]pyrido[4,3-d]pyrimidin-7 (2H)-yl)acetyl)-4-fluoropyrrolidine-2-carboxamide], the pIC50 was 6.00 to 7.00.
